From US8148402B2, “Isoindolinone derivatives having inhibitory activity against T-type calcium channel and method for preparation thereof” (Korea Institute of Science and Technology, priority 2008, dated 2012)

Assays:
α1G T-type Ca2+ channels = target: T1, α1G T-type Ca2+ channels (Homo sapiens, UniProt O43497); experiment: Assay for inhibitory activity against T-type calcium channel using FDSS6000; type: cell-based; settings: HEK293 cells expressing α1G and Kir2.1, KCl (70 mM) depolarization, fluo3/AM, read-out: FDSS (% Inhibition, at 10 μM)
T1 construct: expressed in transfected cells
Protocol: Meanwhile, the novel compounds of Chemical Formula 1 in accordance with the present invention were assayed for antagonistic activity against T-type calcium channels. In this regard, an examination was made of the % inhibition of the compounds against T-type calcium channel using FDSS6000.
In the present invention, in order to search for an efficient inhibitor against T-type calcium channel, a primary assay for T-type calcium channel inhibiting activity was conducted by a high-efficient assay using FDSS6000, wherein mammal HEK293 cell lines (originated from human kidney carcinoma cells), which specifically express alG of T-type calcium channel, were used for the primary assay.
HEK293 cells which stably express both α1G and Kir2.1 subunits were grown in Dulbecoo's modified Eagle's medium supplemented with 10% (v/v) fetal bovine serum, penicillin (100 U/ml), streptomycin (100 µg/ml), geneticin (500 µg/ml), and puromycin (1 μg/ml) at 37° C. in a humid atmosphere of 5% CO2 and 95% air. Cells were seeded into 96-well black wall clear bottom plates at a density of 40,000 cells/well and were used on the next day for high-throughput screening (HTS) FDSS6000 assay. For FDSS6000 assay, cells were incubated for 60 min at room temperature with 5 µM fluo3/AM and 0.001% Pluronic F-127 in a HEPES-buffered solution composed of (in MM): 115 NaCl, 5.4 KCl, 0.8 MgCl2, 1.8 CaCl2, 20 HEPES, 13.8 glucose (pH 7.4). During fluorescence-based FDSS6000 assay, […]1G T-type Ca^2+ channels were activated using a high concentration of KCl (70 mM) in 10 mM CaCl2 contained HEPES-buffered solution, and the increase in [Ca^2+]i by KCl-induced depolarization was detected. All data were collected and analyzed using FDSS6000 and related software (Hamamatsu, Japan).

T-type calcium channel = T-type calcium channel (Homo sapiens, UniProt O43497); experiment: Measurement of ion currents through T-type calcium channel using automated patch clamp; type: cell-based; settings: whole-cell automated patch clamp, HEK-293 cells expressing T-type calcium channel, 10 mM Ba2+
Description: The selected compounds were used in a second assay for T-type calcium channel inhibiting activity using electrophysiological whole cell patch clamp method, wherein mammal HEK293 cell lines, which are originated from human kidney carcinoma cells and which specifically express alG of T-type calcium channel, were used for the second assay. As a reference drug, mibefradil which had been developed as T-type calcium channel inhibitor was used.
Stably expressed T-type calcium channels in Human Embryonic Kidney (HEK)-293 cell were provided by Korea Research Institute of Bioscience and Biotechnology (KRIBB) and hERG (human ether-a-go-go-related gene) channels induced by a Tet-expression system expressed in HEK-293 cell were purchased from Iongate (Frankfurt, Germany). In a humidified 5% CO2 incubator at 37° C., T-type calcium channel expressed cells were maintained in Dulbecco's modified Eagle's medium (DMEM) including 10% Fetal Bovine Serum (FBS), and hERG channel expressed cells were maintained in MEM with 10% FBS. For hERG channel expression, the Tet-expression system was activated by adding 1 μg/ml Doxycyclin into the hERG channel cell growth medium 20 h prior to use. Cell lines were subcultured once in three days and used for patch clamp recordings at final confluence of 50-80%. To harvest cells, cell detacher, Trypsin-EDTA (0.25×) was added into the dish and single cells were made using a pipette. Trypsin was removed by centrifugation at 1100 rpm for 3 min. Cells were automatically suspended after adding external cellular solution at room temperature.
The composition of solution for measuring T-type calcium channel and hERG channel activity is following: 140 mM NaCl, 2 mM CaCl2, 4 mM KCl, 1 mM MgCl2, 5 mM D-glucose and 10 mM HEPES (pH 7.4) for external cellular solution, 50 mM KCl, 10 mM NaCl, 60 mM KF, 2 mM MgCl2, 10 mM HEPES and 20 mM EGTA (pH 7.2) for internal cellular solution and 80 mM NaCl, 35 mM CaCl2, 3 mM KCl, 10 mM MgCl2 and 10 mM HEPES (pH 7.4) for seal enhancer. T-type calcium channel activity was recorded after adding 10 mM Ba^2+ into external solution. Each compound dissolved in 100% DMSO with a final concentration of 100 mM was diluted to 10 nM˜100 μM range in external solution with 10 mM Ba^2+ for T-type calcium channel and no Ba^2+ for hERG channel recordings.
In all experiments, auto patch clamp machine NPC©-16 Patchliner (Nanion Technologies, Germany) and whole-cell patch clamp technique were used. Channel current was recorded by EPC10 (HEKA, Germany) amplifier. Cell suspension and patch solutions were automatically divided into the chip (NPC-16 Chip, Nanion Technologies, Germany). Inward current was recorded at −20 mV depolarization potential at intervals of 10 s during 300 ms with −100 mV holding potential for T-type calcium channels, and tail current was recorded at −50 mV at intervals of 10 s during 500 ms after 20 mV depolarization during 200 ms with −80 mV holding potential for hERG channels. Compounds at each concentration were applied to the cell during 20 s. Inhibition curves and IC50 values were automatically calculated from peak currents using data analysis program, IGOR Pro (WaveMetrics, USA).

Chain of T-type calcium channel (O43497 whole entry): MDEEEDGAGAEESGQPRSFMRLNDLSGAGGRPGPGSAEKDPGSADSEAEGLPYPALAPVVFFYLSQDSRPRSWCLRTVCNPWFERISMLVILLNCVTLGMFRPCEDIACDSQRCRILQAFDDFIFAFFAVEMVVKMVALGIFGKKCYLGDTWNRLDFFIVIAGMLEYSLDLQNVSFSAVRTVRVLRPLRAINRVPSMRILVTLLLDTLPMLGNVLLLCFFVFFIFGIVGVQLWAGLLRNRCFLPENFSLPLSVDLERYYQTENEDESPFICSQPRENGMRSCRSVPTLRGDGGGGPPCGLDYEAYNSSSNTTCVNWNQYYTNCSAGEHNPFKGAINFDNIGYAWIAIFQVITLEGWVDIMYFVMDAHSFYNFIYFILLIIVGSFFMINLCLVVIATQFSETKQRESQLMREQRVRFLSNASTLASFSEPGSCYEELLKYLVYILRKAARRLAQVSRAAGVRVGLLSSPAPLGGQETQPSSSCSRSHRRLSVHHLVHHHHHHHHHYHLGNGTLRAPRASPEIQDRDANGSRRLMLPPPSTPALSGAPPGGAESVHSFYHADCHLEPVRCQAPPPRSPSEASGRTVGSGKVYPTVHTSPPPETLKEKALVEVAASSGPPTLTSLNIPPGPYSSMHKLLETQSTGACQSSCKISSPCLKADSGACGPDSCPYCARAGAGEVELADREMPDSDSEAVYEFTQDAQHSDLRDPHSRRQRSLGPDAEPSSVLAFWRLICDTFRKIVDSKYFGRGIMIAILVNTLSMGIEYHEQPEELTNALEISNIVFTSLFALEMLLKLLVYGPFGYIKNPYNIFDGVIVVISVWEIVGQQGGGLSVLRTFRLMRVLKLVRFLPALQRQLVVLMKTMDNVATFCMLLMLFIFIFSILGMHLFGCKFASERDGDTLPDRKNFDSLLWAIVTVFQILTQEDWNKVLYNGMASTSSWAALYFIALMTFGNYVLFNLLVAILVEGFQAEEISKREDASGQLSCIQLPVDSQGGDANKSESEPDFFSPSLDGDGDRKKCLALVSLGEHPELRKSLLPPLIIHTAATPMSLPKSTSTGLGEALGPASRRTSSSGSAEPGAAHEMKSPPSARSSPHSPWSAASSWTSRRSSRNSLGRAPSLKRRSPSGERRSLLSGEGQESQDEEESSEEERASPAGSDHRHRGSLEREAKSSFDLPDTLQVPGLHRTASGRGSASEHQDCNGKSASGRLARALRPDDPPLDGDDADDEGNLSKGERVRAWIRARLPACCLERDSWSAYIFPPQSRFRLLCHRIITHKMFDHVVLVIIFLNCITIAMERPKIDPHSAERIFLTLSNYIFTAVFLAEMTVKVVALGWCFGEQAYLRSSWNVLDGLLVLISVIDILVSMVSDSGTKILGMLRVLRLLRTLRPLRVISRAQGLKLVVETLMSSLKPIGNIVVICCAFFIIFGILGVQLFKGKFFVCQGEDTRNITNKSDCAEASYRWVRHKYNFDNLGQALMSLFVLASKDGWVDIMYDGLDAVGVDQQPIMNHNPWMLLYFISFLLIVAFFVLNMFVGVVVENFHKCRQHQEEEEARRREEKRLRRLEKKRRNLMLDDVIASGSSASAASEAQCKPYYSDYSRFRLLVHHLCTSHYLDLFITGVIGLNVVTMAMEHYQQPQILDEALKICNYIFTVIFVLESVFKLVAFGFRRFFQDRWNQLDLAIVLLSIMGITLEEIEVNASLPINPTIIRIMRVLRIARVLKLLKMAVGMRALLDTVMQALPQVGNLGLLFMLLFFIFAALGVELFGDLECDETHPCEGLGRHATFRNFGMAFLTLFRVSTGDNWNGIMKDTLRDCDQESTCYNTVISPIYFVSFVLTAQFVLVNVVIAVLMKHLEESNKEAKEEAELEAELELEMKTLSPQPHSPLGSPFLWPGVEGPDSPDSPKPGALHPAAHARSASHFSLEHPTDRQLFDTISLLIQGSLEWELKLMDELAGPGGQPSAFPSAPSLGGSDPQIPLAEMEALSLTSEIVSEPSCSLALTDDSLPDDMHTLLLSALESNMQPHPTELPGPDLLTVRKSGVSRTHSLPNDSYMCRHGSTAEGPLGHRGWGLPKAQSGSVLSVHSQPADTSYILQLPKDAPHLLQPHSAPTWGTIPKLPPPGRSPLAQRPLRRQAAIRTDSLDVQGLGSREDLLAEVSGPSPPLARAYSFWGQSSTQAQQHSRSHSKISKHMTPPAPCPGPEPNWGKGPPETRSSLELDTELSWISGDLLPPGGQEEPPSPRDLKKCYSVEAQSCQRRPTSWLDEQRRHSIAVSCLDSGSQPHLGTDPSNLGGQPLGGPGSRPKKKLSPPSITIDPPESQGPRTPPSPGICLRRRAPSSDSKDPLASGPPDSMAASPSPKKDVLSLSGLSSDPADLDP
T1 sequence (O43497 whole entry): as above

SMILES	inhibition at 10 µM (α1G T-type Ca2+ channels) [%]	IC50 (T-type calcium channel) [nM]
CCC1CCCCN1CCCNC(=O)c1ccc2c(c1)C(=O)N(Cc1cccc(Br)c1)C2 (centres unmarked) [Compound 24, 2-(3-bromobenzyl)-N-(3-(2-ethylpiperidin-1-yl)propyl)-3-oxoisoindoline-5-carboxamide]	46	4070
CC(C)C1CCCCN1CCCNC(=O)c1ccc2c(c1)C(=O)N(Cc1cccc(I)c1)C2 (centres unmarked) [Compound 44, 2-(3-iodobenzyl)-N-(3-(2-isopropylpiperidin-1-yl)propyl)-3-oxoisoindoline-5-carboxamide]	60.7	4360
O=C(NCCCN1CCCCC1)c1ccc2c(c1)C(=O)N(Cc1ccccc1)C2 [Compound 1, 2-benzyl-3-oxo-N-(3-(piperidin-1-yl)propyl)isoindoline-5-carboxamide]	22	9570
CCCCC1CCCCN1CCCNC(=O)c1ccc2c(c1)C(=O)N(Cc1cccc(Cl)c1)C2 (centres unmarked) [Compound 49, N-(3-(2-butylpiperidin-1-yl)propyl)-2-(3-chlorobenzyl)-3-oxoisoindoline-5-carboxamide]	71.8	620
CC(C)C1CCCCN1CCCNC(=O)c1ccc2c(c1)C(=O)N(Cc1cccc(Br)c1)C2 (centres unmarked) [Compound 42, 2-(3-bromobenzyl)-N-(3-(2-isopropylpiperidin-1-yl)propyl)-3-oxoisoindoline-5-carboxamide]	44.4	4150
O=C(NCCCN1CCCCC1)c1ccc2c(c1)C(=O)N(Cc1ccc(Br)cc1)C2 [Compound 7, 2-(4-bromobenzyl)-3-oxo-N-(3-(piperidin-1-yl)propyl)isoindoline-5-carboxamide]	33.4	9770
CC(C)C1CCCCN1CCCNC(=O)c1ccc2c(c1)C(=O)N(Cc1cccc(Cl)c1)C2 (centres unmarked) [Compound 40, 2-(3-chlorobenzyl)-N-(3-(2-isopropylpiperidin-1-yl)propyl)-3-oxoisoindoline-5-carboxamide]	56.7	1010
CC(C)C1CCCCN1CCCNC(=O)c1ccc2c(c1)C(=O)N(Cc1ccc(Br)cc1)C2 (centres unmarked) [Compound 43, 2-(4-bromobenzyl)-N-(3-(2-isopropylpiperidin-1-yl)propyl)-3-oxoisoindoline-5-carboxamide]	51.7	5100
O=C(NCCCN1CCCCC1c1ccccc1)c1ccc2c(c1)C(=O)N(Cc1ccc(Br)cc1)C2 (centres unmarked) [Compound 61, 2-(4-bromobenzyl)-3-oxo-N-(3-(2-phenylpiperidin-1-yl)propyl)isoindoline-5-carboxamide]	45.6	1070
CCCCC1CCCCN1CCCNC(=O)c1ccc2c(c1)C(=O)N(Cc1ccccc1)C2 (centres unmarked) [Compound 46, 2-benzyl-N-(3-(2-butylpiperidin-1-yl)propyl)-3-oxoisoindoline-5-carboxamide]	55.3	2650
CCCCC1CCCCN1CCCNC(=O)c1ccc2c(c1)C(=O)N(Cc1ccc(F)cc1)C2 (centres unmarked) [Compound 48, N-(3-(2-butylpiperidin-1-yl)propyl)-2-(4-fluorobenzyl)-3-oxoisoindoline-5-carboxamide]	62.1	1920
CC(C)C1CCCCN1CCCNC(=O)c1ccc2c(c1)C(=O)N(Cc1ccc(I)cc1)C2 (centres unmarked) [Compound 45, 2-(4-iodobenzyl)-N-(3-(2-isopropylpiperidin-1-yl)propyl)-3-oxoisoindoline-5-carboxamide]	58.9	1070
CCCC1CCCCN1CCCNC(=O)c1ccc2c(c1)C(=O)N(Cc1ccc(I)cc1)C2 (centres unmarked) [Compound 36, 2-(4-iodobenzyl)-3-oxo-N-(3-(2-propylpiperidin-1-yl)propyl)isoindoline-5-carboxamide]	53.8	6870
CCCC1CCCCN1CCCNC(=O)c1ccc2c(c1)C(=O)N(Cc1cccc(Br)c1)C2 (centres unmarked) [Compound 33, 2-(3-bromobenzyl)-3-oxo-N-(3-(2-propylpiperidin-1-yl)propyl)isoindoline-5-carboxamide]	60.8	1740
CCCCC1CCCCN1CCCNC(=O)c1ccc2c(c1)C(=O)N(Cc1cccc(F)c1)C2 (centres unmarked) [Compound 47, N-(3-(2-butylpiperidin-1-yl)propyl)-2-(3-fluorobenzyl)-3-oxoisoindoline-5-carboxamide]	49	2300
O=C(NCCCN1CCCCC1c1ccccc1)c1ccc2c(c1)C(=O)N(Cc1cccc(Br)c1)C2 (centres unmarked) [Compound 60, 2-(3-bromobenzyl)-3-oxo-N-(3-(2-phenylpiperidin-1-yl)propyl)isoindoline-5-carboxamide]	55.2	1540
